In test [1] the target is T1, Gastrin/cholecystokinin type B receptor (Mus musculus, UniProt P56481).
T1 sequence (P56481 whole entry): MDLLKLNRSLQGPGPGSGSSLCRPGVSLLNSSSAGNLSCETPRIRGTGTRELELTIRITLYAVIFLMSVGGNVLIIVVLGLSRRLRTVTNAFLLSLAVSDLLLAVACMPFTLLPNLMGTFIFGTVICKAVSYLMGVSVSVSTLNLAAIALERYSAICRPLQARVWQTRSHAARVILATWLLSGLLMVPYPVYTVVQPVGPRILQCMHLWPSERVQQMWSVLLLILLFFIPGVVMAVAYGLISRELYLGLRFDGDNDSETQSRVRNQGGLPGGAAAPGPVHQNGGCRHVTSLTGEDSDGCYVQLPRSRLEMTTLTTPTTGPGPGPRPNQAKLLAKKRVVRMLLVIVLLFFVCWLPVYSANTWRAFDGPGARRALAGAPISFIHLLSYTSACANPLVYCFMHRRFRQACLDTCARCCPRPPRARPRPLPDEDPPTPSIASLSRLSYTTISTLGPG
Briefly: The compound was tested for its activity to inhibit the binding of [125I]CCK-8 to Cholecystokinin type B receptor in mouse brain at a pH of 6.5. The test is classed as tissue-based.

Test [2] concerns the target T2, Cholecystokinin receptor type A (Rattus norvegicus, UniProt P30551).
T2 sequence (P30551 whole entry): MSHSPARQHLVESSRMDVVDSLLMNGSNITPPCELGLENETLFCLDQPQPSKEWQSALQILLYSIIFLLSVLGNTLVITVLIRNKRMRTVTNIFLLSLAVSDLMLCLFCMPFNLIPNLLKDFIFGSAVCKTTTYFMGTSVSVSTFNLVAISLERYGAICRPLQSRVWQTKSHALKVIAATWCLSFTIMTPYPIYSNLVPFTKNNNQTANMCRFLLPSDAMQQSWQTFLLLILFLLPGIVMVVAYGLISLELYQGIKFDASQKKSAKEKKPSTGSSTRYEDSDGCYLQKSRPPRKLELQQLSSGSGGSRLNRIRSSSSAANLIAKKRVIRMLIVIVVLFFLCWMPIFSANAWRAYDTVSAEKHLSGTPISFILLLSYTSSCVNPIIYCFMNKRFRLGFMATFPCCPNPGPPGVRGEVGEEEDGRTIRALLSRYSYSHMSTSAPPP
The experiment in a line: The compound was tested for its activity to inhibit the binding of [3H]-L-364,718 to Cholecystokinin type A receptor in rat pancreas.

Test [3] concerns the target T2, Cholecystokinin receptor type A. The experiment in a line: The compound was tested for its activity to inhibit the binding of [125I]CCK-8 to Cholecystokinin type A receptor in rat pancreas.
For test [4], the target named is T1, Gastrin/cholecystokinin type B receptor. Briefly: The compound was tested for its activity to inhibit the binding of [125I]CCK-8 to Cholecystokinin type B receptor in mouse brain at a pH of 7.4. The test is classed as tissue-based.

The IC50 is the point on the concentration scale where inhibition reaches its midpoint. For the compound `O=C1NN(C(=O)Nc2ccc(Br)cc2)[C@@H](c2ccccc2)[C@@H]1c1ccccc1`, the 50% inhibitory concentration (IC50) in test [1] is 19 nM; in test [2], 20500 nM.

For `O=C1NN(C(=O)Nc2ccc(Br)cc2)C(c2ccccc2)C1c1ccccc1` (centres undefined), the IC50 in test [1] turned out to be 31 nM; in test [2], 11600 nM.

With `CN1C(=O)[C@@H](NC(=O)c2ccc(Cl)cc2)N=C(c2ccccc2)c2ccccc21`, the half-maximal inhibitory concentration (IC50) in test [3] came out at 0.39 nM.

For the compound `O=C1NN(C(=S)Nc2ccc(Cl)c(C(F)(F)F)c2)C(c2ccccc2)C1c1ccccc1` (centres undefined), the figures for the IC50 in test [4] and in test [2] were 880 nM and 42 nM, respectively.

As to `CN1C(=O)[C@H](NC(=O)c2ccc(Cl)cc2)N=C(c2ccccc2)c2ccccc21`, the IC50 in test [3] stood at 2.9 nM.

As for `O=C1NN(C(=S)Nc2ccc(Cl)c(C(F)(F)F)c2)[C@@H](c2ccccc2)[C@@H]1c1ccccc1`, the figures for the IC50 in test [4] and in test [2] were 550 nM and 810 nM, respectively.

Consider `O=C1NN(C(=S)Nc2ccc(Cl)c(C(F)(F)F)c2)[C@H](c2ccccc2)[C@H]1c1ccccc1`, for which the IC50 in test [4] was 1900 nM; in test [2], 17 nM.

`O=C1NN(C(=O)Nc2ccc(Br)cc2)[C@H](c2ccccc2)[C@H]1c1ccccc1`: the 50% inhibitory concentration (IC50) is 370 nM in test [1] and 6400 nM in test [2].
